Laboratory results as given in patent publication US20170157161A1, “Anti-Cancer Therapies” (Threshold Pharmaceuticals, Inc., priority 2015, published 2017).

Assays:
[1] = system: HS766-T human pancreatic cancer cells; assay: HS766-T human pancreatic tumor model in NMRI nu/nu mice; type: in vivo
Experimental: (§1) A combination of glufosfamide and gemcitabine was administered daily for 7 days to female NMRI nu/nu mice that were carrying tumors derived from HS766-T or As-PC-1 human pancreatic cancer cells. Mice were administered doses of vehicle control (0.9% sodium chloride solution, i.v.), gemcitabine (i.p.), glufosfamide (i.v.) or gemcitabine/glufosfamide combinations once daily for 7 consecutive days. A dose of 1.25 mg/kg was used as the standard dose for gemcitabine throughout the study.

[2] = system: As-PC-1 human pancreatic cancer cells; assay: As-PC-1 human pancreatic tumor model in NMRI nu/nu mice; type: in vivo; settings: glufosfamide i.v. and gemcitabine 1.25 mg/kg i.p., alone or in combination, once daily for 7 days
Experimental: as §1

[3] = system: MiPaca2 human pancreatic cancer cells; assay: MiPaca2 human pancreatic tumor model in nude mice; type: in vivo
Experimental: A combination of glufosfamide and gemcitabine was administered to nude mice that were carrying tumors derived from type MiPaca2 human pancreatic cancer cells. Mice were administered doses of vehicle control, gemcitabine, glufosfamide, or gemcitabine/glufosfamide combinations as tabulated in Table 1 below (10 mice/group). Glufosfamide was administered i.v., daily for 14 days (Groups 1-4 and 7-12). Gemcitabine was administered at 300 mg/kg, i.p., once a week for three weeks (Groups 6 and 10-12). Gemcitabine was administered at 150 mg/kg, i.p., twice a week for three weeks (Groups 5 and 7-9).

[4] = system: pancreatic cancer cell lines; settings: in vitro; cited from earlier work
[5] = system: advanced pancreatic cancer; settings: patients with advanced pancreatic cancer; cited from earlier work

## Nc1ccn([C@@H]2O[C@H](CO)[C@@H](O)C2(F)F)c(=O)n1 [gemcitabine, 2′-deoxy-2′,2′-difluoro-cytidine]
[1]; gemcitabine alone 1.25 mg/kg i.p. once daily for 7 days
  inhibitory effect on tumor progression: only a marginal inhibitory effect on tumor progression
[2]
  inhibitory effect on tumor growth: no apparent inhibitory effect on tumor growth
[3]; Group 5: gemcitabine 150 mg/kg i.p. twice a week for three weeks
  deaths of the animals: rapid deaths of the animals
[3]; Group 6: gemcitabine 300 mg/kg i.p. once a week for three weeks
  reduction in tumor size: Approximately 50%

## O=P(NCCCl)(NCCCl)O[C@@H]1O[C@H](CO)[C@@H](O)[C@H](O)[C@H]1O [glufosfamide, β-D-glucosyl-ifosfamide mustard]
[1]; 10 mg/kg glufosfamide i.v. once daily for 7 days, compared with gemcitabine alone or vehicle control
  onset of tumor growth: dramatic delay in the onset of tumor growth
[2]
  inhibitory effect on tumor growth: no apparent inhibitory effect on tumor growth
[3]; Group 3: glufosfamide 30 mg/kg i.v. daily for 14 days
  reduction in tumor size: modest reduction in tumor size
[3]; Group 4: glufosfamide 100 mg/kg i.v. daily for 14 days
  reduction in tumor size: modest reduction in tumor size

## Nc1nc2[nH]cc(CCc3ccc(C(=O)N[C@@H](CCC(=O)O)C(=O)O)cc3)c2c(=O)[nH]1 [Pemetrexed]
[4]
  activity against pancreatic cancer cell lines: active against pancreatic cancer cell lines in vitro
[5]
  activity in patients: has shown activity in patients with advanced pancreatic cancer
